{
  "source": "patent US20040086514A1",
  "about": "“Novel helicobacter pylori-binding substances and use thereof” (priority 1999, published 2004)",
  "key": {"[1]": {"system": "Helicobacter pylori", "test": "Inhibition of binding on thin-layer chromatograms with soluble oligosaccharides", "conditions": "for inhibition of binding of Helicobacter pylori to lactotetraosylceramide: 1 h room temperature, strain 17875 (FIG. 5)", "procedure": "As a test for possible inhibition of binding by soluble sugars 35S-labeled Helicobacter pylori strains 002 and 032 were incubated for 1 h at room temperature with various concentrations (0.05 mg/ml, 0.1 mg/ml and 0.2 mg/ml) of lactotetraose (Accurate Chem. & Sci. Corp., Westbury, N.Y.) or lactose (J. T. Baker Chem. Co., Phillipsburg, N.J.) in PBS. Thereafter the chromatogram binding assay was performed as described above, using chromatograms with separated gangliotetraosylceramide, lactotetraosylceramide and reference glycosphingolipids.\nThe ability of soluble oligosaccharides to interfere with the binding of Helicobacter pylori to glycosphingolipids on thin-layer plates was examined by incubating radiolabelled Helicobacter pylori strain 17875 with free lactotetraose (0.1 mg/ml) or lactose (0.2 mg/ml) in PBS for 1 h at room temperature before the chromatogram binding assay of the suspensions. […] The lanes were: Galβ3GalNAcβ4Galβ4Glcβ1Cer (gangliotetraosylceramide), 4 μg (lane 1); Galβ3GlcNAcβ3Galβ4Glcβ1Cer (lactotetraosylceramide), 4 μg (lane 2); Galβ4GlcNAcβ3Galβ4Glcβ1Cer (neolactotetraosylceramide), 4 μg (lane 3). The glycosphingolipids were separated on aluminium-backed silica gel 60 HPTLC plates, using chloroform/methanol/water (60:35:8, by volume) as solvent system, and the binding assay was performed as described under “Materials and Methods”, using 2% BSA and 0.1% Tween 20 in PBS as coating buffer. Autoradiography was for 12 h."}, "[2]": {"system": "Helicobacter pylori", "test": "Chromatogram binding assay: 35S-labeled Helicobacter pylori to glycosphingolipids on thin-layer plates", "conditions": "for dependence of binding on other lipids or bile salts (Tween 20, deoxycholate) in the thin-layer chromatogram assay: coating buffer with or without detergent (FIG. 1); for binding of Helicobacter pylori in mixtures of reference glycosphingolipids: strain 17875, non-acid fractions of dog small intestine, guinea pig small intestine, mouse faeces (FIG. 1); for binding of Helicobacter pylori to major acid glycosphingolipids of epithelial cells of human stomach: strains 002 and 032, identified tentatively by mobility on thin-layer chromatograms"}},
  "note": "“Also recorded” adds a separate entry of the source.",
  "data": [
    {"compound": "OC[C@H]1O[C@@H](O[C@H]2[C@H](O)[C@@H](O)C(O)O[C@@H]2CO)[C@H](O)[C@@H](O)[C@H]1O", "note": "(stereo partly shown) [lactose, reference compound]", "values": [
      {"measurement": "inhibition of binding of Helicobacter pylori to lactotetraosylceramide", "setting": "[1]; bacteria preincubated with 0.2 mg/ml in PBS", "result": "no inhibitory effect"}
    ]},
    {"compound": "CC(=O)N[C@H]1[C@H](O[C@H]2[C@@H](O)[C@@H](CO)O[C@@H](O[C@H]3[C@H](O)[C@@H](O)C(O)O[C@@H]3CO)[C@@H]2O)O[C@H](CO)[C@@H](O)[C@@H]1O[C@@H]1O[C@H](CO)[C@H](O)[C@H](O)[C@H]1O", "note": "(stereo partly shown) [lactotetraose, Galβ3GlcNAcβ3Galβ4Glc]", "values": [
      {"measurement": "inhibition of binding of Helicobacter pylori to lactotetraosylceramide", "setting": "[1]; bacteria preincubated with 0.1 mg/ml in PBS", "result": "inhibited the binding"},
      {"measurement": "blocking of binding of H. pylori to gangliotetraosylceramide", "setting": "[1]; preincubation with soluble oligosaccharide (FIG. 5)", "result": "able to block binding"}
    ]},
    {"compound": "Galβ3GalNAcβ4Galβ4Glcβ1Cer [gangliotetraosylceramide]", "values": [
      {"measurement": "dependence of binding on other lipids or bile salts (Tween 20, deoxycholate) in the thin-layer chromatogram assay", "setting": "[2]", "result": "only marginally is affected"},
      {"measurement": "binding of Helicobacter pylori in mixtures of reference glycosphingolipids", "setting": "[2]", "result": "binding"}
    ]},
    {"compound": "Galβ3GlcNAcβ3Galβ4Glcβ1Cer", "values": [
      {"measurement": "binding activity relative to lactotetraosylceramide from human meconium", "setting": "[2]; ceramide exclusively sphingosine and non-hydroxy 16:0 and 24:0 fatty acids, not shown", "result": "as active as the lactotetraosylceramide from human meconium"}
    ]},
    {"compound": "Galβ3GlcNAcβ3Galβ4Glcβ1Cer [No. 2]", "values": [
      {"measurement": "Helicobacter pylori isolates expressing the lactotetraosylceramide binding capacity", "setting": "[2]; 66 isolates of Table I, lactotetraosylceramide of human meconium", "result": 86, "unit": "%"},
      {"measurement": "recognition by sialic acid-binding H. pylori strain CCUG 17874", "setting": "[2]; FIG. 11 B", "result": "recognised"},
      {"measurement": "recognition by H. pylori strain CCUG 17875 devoid of sialic acid binding capacity", "setting": "[2]; FIG. 11 C", "result": "recognised"},
      {"measurement": "effect of bacterial growth conditions on binding", "setting": "[2]; bacteria grown on agar and in broth, for 12 h and for 120 h", "result": "not affected"},
      {"measurement": "dependence of binding on other lipids or bile salts (Tween 20, deoxycholate) in the thin-layer chromatogram assay", "setting": "[2]", "result": "only when other lipids or bile salts, such as Tween 20 or deoxycholate, are used"},
      {"measurement": "binding by babAlA2 mutant strain", "setting": "[2]; gene coding for the Le^b-binding adhesin inactivated, data not shown", "result": "Binding"},
      {"measurement": "number of Helicobacter pylori isolates expressing the lactotetraosylceramide binding capacity", "setting": "[2]; of 66 isolates of Table I, lactotetraosylceramide of human meconium", "result": 57}
    ]},
    {"compound": "NeuAcα3Galβ4Glcβ1Cer [GM3, reference compound]", "values": [
      {"measurement": "binding of Helicobacter pylori to major acid glycosphingolipids of epithelial cells of human stomach", "setting": "[2]", "result": "No binding"},
      {"measurement": "binding of Helicobacter pylori to major acid glycosphingolipids of epithelial cells of human stomach", "setting": "[2]; listed as GM3 ganglioside", "result": "non-existent"}
    ]},
    {"compound": "gangliotriaosylceramide [reference compound]", "values": [
      {"measurement": "binding of Helicobacter pylori in mixtures of reference glycosphingolipids", "setting": "[2]", "result": "binding"}
    ]},
    {"compound": "lactosylceramide [reference compound]", "values": [
      {"measurement": "binding of Helicobacter pylori in mixtures of reference glycosphingolipids", "setting": "[2]", "result": "binding"}
    ]},
    {"compound": "maltoheptaose(red) -HDA [reference compound]", "values": [
      {"measurement": "binding activity with regard to Helicobacter pylori in TLC-overlay assay", "setting": "[2]; 4-hexadecylaniline (HDA) derivatives, compared with lactotetraosylceramide glycosphingolipid", "result": "totally inactive"}
    ]},
    {"compound": "sulfatide [reference compound]", "values": [
      {"measurement": "binding of Helicobacter pylori to major acid glycosphingolipids of epithelial cells of human stomach", "setting": "[2]", "result": "No binding; also recorded: non-existent"}
    ]}
  ]
}
